Test results: paper PMC12655351, “Synthesis and Anticancer Activity Evaluation of New 5-((5-Nitrofuran-2-yl)allylidene)-2-thioxo-4-thiazolidinones” (Pharmaceuticals, 2025)

Assays:
TK-10 = details: TK-10, 48 h
CNS cancer [1] = details: CNS cancer subpanel
Leukemia [2] = assay: cells; details: Homo sapiens
U251 = assay: NCI-60 SRB screen
PC-3 = details: PC-3, 48 h
SN12C [3] = details: SN12C, 48 h
Leukemia [4] = details: Leukemia subpanel
NCI-H266 = assay: NCI-60 SRB screen
UACC-257 = assay: cells; details: Homo sapiens, UACC-257, 48 h
SK-MEL-28 [5] = assay: cells; details: Homo sapiens, SK-MEL-28, 48 h
NCI/ADR-RES = details: 48 h
NCI-H23 = details: NCI-H23, 48 h
Prostate Cancer = assay: cells; details: Homo sapiens, read-out: MG_MID GI50
HCT-15 = assay: NCI-60 SRB screen; details: HCT-15, 48 h
EKVX = assay: NCI-60 SRB screen; details: 48 h
MALME-3M = assay: NCI-60 SRB screen; details: 48 h
SK-MEL-28 [6] = details: SK-MEL-28, 48 h
SK-OV-3 = assay: cells; details: Homo sapiens, SK-OV-3, 48 h
CNS cancer [7] = assay: cells; details: Homo sapiens
MDA-MB-231 = assay: [3H]-thymidine incorporation assay; type: cell-based; details: Homo sapiens; MDA-MB-231, 24 h of treatment
Experimental: (§1) Another method of assessing the cytotoxic effects of tested compounds, [^3H]-thymidine incorporation assay, was applied. This method provided the capability to analyze the antiproliferative activity of novel structures on MCF-7 and MDA-MB-231 through their ability to incorporate thymidine into the cells. The acquired results further confirmed the potent activity of the 14b compound as the most prominent structure among the novel compounds (Table 2). The test was carried out in triplicate at concentrations of 5, 15, and 30 μM for the MDA-MB-231 cell line and 1, 5, and 10 μM for the MCF-7 cell line.
(§2) Following the selection of cell lines for further study, the effects of all compounds on cell proliferation were evaluated on MCF-7 and MDA-MB-231 cell lines. Cells were seeded in 24-well plates and cultured as described above. Cells were treated with the compounds at concentrations 1, 5, and 10 μM, and 5, 15, and 30 μM for MCF-7 and MDA-MB-231 cell lines, respectively, for 24 h. Subsequently, 0.5 μCi [^3H]-thymidine was added for 4 h at 37 °C. Then, plates with cells were placed on the ice, the liquid was aspirated, and cells were washed twice with 1mL of 0.05 M Tris-HCl buffer comprising 0.11 M NaCl and precipitated by adding 1 mL per well of 5% trichloroacetic. After precipitation, the cells were dissolved with 1 mL of 0.1 M NaOH with 1% SDS (Sigma-Aldrich, St. Louis, MO, USA) at room temperature (RT). The cell lysates were transferred into scintillation vials containing 2 mL of scintillation fluid (Ultima Gold™ XR, PerkinElmer, MA, USA), and cell-associated radioactivity was measured using a Scintillation Counter 1900 TR, TRI-CARB (Packard, Perkin Elmer, Inc., San Jose, CA, USA). The [^3H]-thymidine uptake was expressed as a percentage of the control value.

MCF-7 = assay: [3H]-thymidine incorporation assay; type: cell-based; details: Homo sapiens, MCF7; MCF-7, 24 h of treatment
Experimental: as §1, §2

T-47D [8] = assay: cells; details: Homo sapiens, T47D, 48 h
HS 578T = assay: cells; details: Homo sapiens, 48 h
T-47D [9] = details: 48 h
HCC-2998 = details: HCC-2998, 48 h
SN12C [10] = assay: cells; details: Homo sapiens, 48 h
LOX IMVI = details: LOX IMVI, 48 h
Renal Cancer = assay: cells; details: Homo sapiens
Breast cancer = Breast cancer subpanel
Ovarian cancer = Ovarian cancer subpanel

CCCC(C(=O)O)N1C(=O)/C(=C/C=C/c2ccc([N+](=O)[O-])o2)SC1=S (centres unmarked) [4b, 2-((Z)-5-((E)-3-(5-Nitrofuran-2-yl)allylidene)-4-oxo-2-thioxothiazolidin-3-yl)pentanoic acid]
TGI (TK-10): 8.16 µM | MG_MID TGI (CNS cancer [1]): 4.46 µM | GI50 (Leukemia [2]; read-out: MG_MID GI50): 2.36 µM | CC50 (Leukemia [2]; read-out: MG_MID LC50): > 100 µM | GI50 (U251; Homo sapiens, U-251, 48 h, U251, 48 h): 1.69 µM | CC50 (U251; Homo sapiens, U-251, 48 h, read-out: LC50, U251, 48 h): 6.7 µM | TGI (U251; U251, 48 h): 3.37 µM | TGI (PC-3): 10.7 µM | growth GP (SN12C [3]; 10 μM): -95.04% | TGI (SN12C [3]): 4.05 µM | MG_MID TGI (Leukemia [4]): 9.43 µM | GI50 (NCI-H266; Homo sapiens, 48 h, NCI-H266, 48 h): 2.62 µM | CC50 (NCI-H266; Homo sapiens, 48 h, read-out: LC50, NCI-H266, 48 h): 78.9 µM | TGI (NCI-H266; NCI-H266, 48 h): 7.83 µM | GI50 (UACC-257): 1.96 µM | CC50 (UACC-257; read-out: LC50, UACC-257, 48 h): 14.8 µM | GI50 (SK-MEL-28 [5]): 1.76 µM | CC50 (SK-MEL-28 [5]; read-out: LC50, SK-MEL-28, 48 h): 6.98 µM | TGI (NCI/ADR-RES): 4.96 µM | TGI (NCI-H23): 4.11 µM | GI50 (Prostate Cancer): 2.65 µM | TGI (HCT-15): 3.39 µM | GI50 (HCT-15; Homo sapiens): 1.65 µM | CC50 (HCT-15; Homo sapiens, read-out: LC50, HCT-15, 48 h): 6.97 µM | TGI (EKVX): 7.77 µM | GI50 (EKVX; Homo sapiens): 2.53 µM | CC50 (EKVX; Homo sapiens, read-out: LC50, EKVX, 48 h): 27.7 µM | GI50 (MALME-3M; Homo sapiens, Malme-3M): 1.8 µM | CC50 (MALME-3M; Homo sapiens, Malme-3M, read-out: LC50, MALME-3M, 48 h): 6.4 µM | TGI (MALME-3M; MALME-3M): 3.40 µM | TGI (SK-MEL-28 [6]): 3.51 µM | GI50 (SK-OV-3): 5.8 µM | CC50 (SK-OV-3; read-out: LC50, SK-OV-3, 48 h): 47.2 µM | GI50 (CNS cancer [7]; read-out: MG_MID GI50): 1.93 µM | CC50 (CNS cancer [7]; read-out: MG_MID LC50): 11.6 µM | IC50 (MDA-MB-231): 3.66 µM | IC50 (MCF-7): 6.13 µM | GI50 (T-47D [8]; T-47D): 2.2 µM | CC50 (T-47D [8]; read-out: LC50): > 100 µM | GI50 (HS 578T; HS 578T): 1.87 µM | CC50 (HS 578T; read-out: LC50): > 100 µM | TGI (T-47D [9]): 5.49 µM | TGI (HCC-2998): 3.33 µM | GI50 (SN12C [10]): 1.76 µM | CC50 (SN12C [10]; read-out: LC50, SN12C, 48 h): 9.32 µM | TGI (LOX IMVI): 3.12 µM | GI50 (Renal Cancer; read-out: MG_MID GI50): 2.25 µM | CC50 (Renal Cancer; read-out: MG_MID LC50): 18.5 µM | MG_MID TGI (Breast cancer): 5.00 µM | MG_MID TGI (Ovarian cancer): 8.71 µM
